Measurements as given in publication PMC11178805, “Ligand-based design of [^18F]OXD-2314 for PET imaging in non-Alzheimer’s disease tauopathies” (Nature Communications, 2024).

Tests used:
aggregated Aβ = molecular target: T1, aggregated Aβ (Homo sapiens, UniProt P05067); test: Competition binding vs [^3H]PiB in AD tissue homogenates; conditions: n = 3
T1 construct: tissue Neurodegenerative Disease Brain Bank at UCSF; host or cells: human AD brain, middle frontal gyrus, pooled homogenate
Experimental: (§1) Fresh frozen, autopsy-confirmed human PD anterior cingulate cortex brain tissue blocks (1 cm^3) were obtained from Dr. Thomas Beach at Banner/Sun Health AZ with funding from the Michael J. Fox Foundation and contained frequent α-synuclein aggregates and no other detectable aggregated amyloid species. The frozen tissue blocks were prepared for the binding assays as previously described[47],[48], except that equal quantities of the homogenates of three AD brains (AD1-AD3, Table S1) were pooled, as were homogenates from three PSP brains (PSP1-PSP3), three CBD brains (CBD1-CBD3), three Pick’s brains (PiD1-PiD3), and 4 PD brains (PD1-PD4) in order to help minimize the inter-subject variability within the different neuropathological groups. Individual subcortical brain tissues from a PSP subject (PSP4) and a CBD subject (CBD4), as well as with the middle frontal cortex of a control subject, were prepared for the binding assays as previously described[47],[48].
(§2) The equilibrium inhibition constant (Ki) values of the unlabeled compounds were determined versus tritium-labeled radioligands using published methods.

[1] = molecular target: 3R/4R-tau aggregates in AD tissue (Homo sapiens, UniProt P10636); test: Competition binding vs [^3H]OXD-2115 in AD tissue homogenates; conditions: vs [^3H]OXD-2115, AD tissue homogenates, n = 1
Experimental: as §1, §2

[2] = molecular target: T2, norepinephrine transporter(h) (Homo sapiens, UniProt P23975); test: In vitro pharmacology binding screen (Eurofins): norepinephrine transporter; conditions: read-out: inhibition of antagonist radioligand (protriptyline) binding to norepinephrine transporter(h)
T2 construct: purchased Eurofins, France (contract screening)
Experimental: OXD-2314 binding to CNS receptors was calculated as a percentage of inhibition of a receptor-specific radioligand. Enzyme inhibition was calculated as the percent inhibition of baseline enzyme activity where inhibition above 50% was considered significant. […] Norepinephrine transports are expressed in low concentration throughout the brain and its relative concentration are not affected by aging or neurodegeneration. 5-lipoxygenase may be overexpressed in aging brain and play some role in neurodegeneration, which could be necessary to further investigate in vivo[42]. Off-target binding to monoamine oxidase A and B (MAO-A and MAO-B) has been seen with some tau PET radiotracers[43],[44].

[3] = molecular target: T3, 4R-tau aggregates in CBD tissue (Homo sapiens, UniProt P10636); test: Competition binding vs [^3H]OXD-2314 in CBD tissue
T3 construct: tissue Neurodegenerative Disease Brain Bank at UCSF; host or cells: human CBD brain, middle frontal gyrus (pool of three) or putamen (one subject)
Experimental: as §1, §2

[4] = molecular target: T3, 4R-tau aggregates in CBD tissue; test: Competition binding vs [^3H]OXD-2115 in CBD tissue; conditions: vs [^3H]OXD-2115, CBD tissue, n = 1
Experimental: as §1, §2

[5] = Whole-body PET-CT biodistribution and dose estimation in rats; type: in vivo
Text: Six rats (3 male, 19.9 ± 6.2 MBq; and 3 female, 20.8 ± 3.2 MBq) were imaged using PET-CT for whole-body biodistribution of radioactivity and dose estimation using standard mass and density of the organs for adult male and female subjects, respectively (Figure S17). […] The estimated whole-body effective dose was 21.3 ± 3.1 and 22.5 ± 0.9 µSv/MBq for adult male and female models, respectively, with the highest absorbed dose of 50.6 ± 16.9 µGy/MBq in the large intestine.
A total of 8 healthy adult rats (Sprague-Dawley, 384 ± 56 g; 4/4 M/F) underwent PET imaging following bolus injection of [^18F]OXD-2314 (20.5 ± 4.1 MBq), with two animals (M/F) scanned for 120 min with the head in the centre of PET field-of-view (FOV) whereas six animals (3/3 M/F) scanned for 180 min at three bed positions (head-to-bottom) with 15 frames (2×15 s, 2×30 s, 2×60 s, 1×120 s, 1×180 s, 2×240 s, 2×300 s, and 3×600 s) to cover the whole body. PET images were acquired using a nanoScan™ PET/CT scanner (Mediso, Budapest, Hungary) with rats anesthetized under isoflurane in O2 (1.5–2%, 1 L/min) throughout the imaging session and monitored closely for body temperature and respiration rate. A scout CT was acquired for PET FOV positioning, then a material map CT image was acquired for PET corrections of attenuation and scatter and for PET/CT co-registration to define anatomic brain regions of interest. For the brain scans, aacquired list-mode data were sorted into thirty-nine three-dimensional (3D) (3×5 s, 3×15 s, 3×20 s, 7×60 s, 17×180 s, and 6×600 s), true sinograms (ring difference 84). The 3D sinograms were converted in 2D sinograms using Fourier rebinning with corrections for detector geometry, efficiencies, attenuation, and scatter before image reconstruction using 2D filtered back projection with a Hann filter at a cut-off of 0.50 cm^−1. The analytical reconstruction was also used for dose assessment of the multi-frame whole-body images. All data were corrected for dead time and were decay-corrected to the start of acquisition. Iteratively reconstructed images with the manufacturer’s proprietary 3D algorithm (6 subsets, 4 iterations) were used for PET and CT co-registration, for co-registration of subject’s CT with a stereotactic MR atlas of brain[51], for organ region-of-interest (ROI) placement, and for presentation in figures. Filtered back projection images were used to extract regional brain and organ time-activity curves (TACs) with VivoQuant® 2020 software (Invicro, Needham, MA, USA) and Amide (1.0.4)[52]. The selected organs (a total of 12) include brain, lungs, heart wall, heart content, liver, stomach content, spleen, kidneys, small intestine content, upper large intestine content, lower large intestine content, and urinary bladder content. Normalized cumulated activities of each organ were calculated using trapezoidal integration of the area under the TACs plus extrapolation of the TAC to infinity with natural decay of the radiotracer. Dose assessment was performed with OLINDA/EXM 1.1 to calculate the effective dose and the effective dose equivalent. SUV were calculated by normalizing regional radioactivity for injected radioactivity and body weight.

T3 sequence (P10636 1-441 isoform P10636-8): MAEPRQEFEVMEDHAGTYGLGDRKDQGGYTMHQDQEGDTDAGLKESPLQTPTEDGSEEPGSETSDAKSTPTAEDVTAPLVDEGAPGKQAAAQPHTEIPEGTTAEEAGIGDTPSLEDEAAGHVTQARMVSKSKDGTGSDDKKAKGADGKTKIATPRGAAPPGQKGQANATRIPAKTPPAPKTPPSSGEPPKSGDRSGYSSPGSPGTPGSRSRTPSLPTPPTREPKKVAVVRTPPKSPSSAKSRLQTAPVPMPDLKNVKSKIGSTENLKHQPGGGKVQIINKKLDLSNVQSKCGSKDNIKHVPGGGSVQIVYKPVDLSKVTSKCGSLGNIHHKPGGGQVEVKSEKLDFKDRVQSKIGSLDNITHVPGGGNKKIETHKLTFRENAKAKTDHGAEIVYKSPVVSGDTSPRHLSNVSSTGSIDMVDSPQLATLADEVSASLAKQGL
T1 sequence (P05067 672-713 limits assumed): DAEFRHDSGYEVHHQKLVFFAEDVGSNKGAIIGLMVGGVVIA
Sequence of 3R/4R-tau aggregates in AD tissue (P10636 623-695 limits assumed): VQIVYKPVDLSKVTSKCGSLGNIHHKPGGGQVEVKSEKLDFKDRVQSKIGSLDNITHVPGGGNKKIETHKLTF
T2 sequence (P23975 whole entry): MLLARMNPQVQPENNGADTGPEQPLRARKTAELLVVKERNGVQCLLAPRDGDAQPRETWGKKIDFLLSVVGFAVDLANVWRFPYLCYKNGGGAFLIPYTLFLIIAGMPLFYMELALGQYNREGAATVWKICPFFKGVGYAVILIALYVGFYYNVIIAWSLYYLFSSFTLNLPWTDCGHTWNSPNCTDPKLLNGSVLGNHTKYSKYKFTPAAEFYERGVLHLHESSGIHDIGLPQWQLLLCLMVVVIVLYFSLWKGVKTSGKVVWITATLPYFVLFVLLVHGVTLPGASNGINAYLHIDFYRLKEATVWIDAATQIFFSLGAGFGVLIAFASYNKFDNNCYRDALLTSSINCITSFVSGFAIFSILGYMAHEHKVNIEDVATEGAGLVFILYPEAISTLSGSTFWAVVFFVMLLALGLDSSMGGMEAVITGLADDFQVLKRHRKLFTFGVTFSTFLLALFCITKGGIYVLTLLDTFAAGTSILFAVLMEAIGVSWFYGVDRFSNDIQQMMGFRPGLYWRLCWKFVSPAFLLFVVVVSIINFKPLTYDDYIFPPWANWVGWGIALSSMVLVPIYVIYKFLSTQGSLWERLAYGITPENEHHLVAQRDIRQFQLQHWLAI

Row | Structure (SMILES) | Ki (aggregated Aβ) [nM] | Ki [1] [nM] | inhibition at 10 µM [2] [%] | Ki [3] [nM] | Ki [4] [nM] | estimated whole-body effective dose ([5]; adult female model, from rat data) [µSv/MBq] | estimated whole-body effective dose ([5]; adult male model, from rat data) [µSv/MBq] | highest absorbed dose, large intestine ([5]; from rat data) [µGy/MBq] | uptake of radioactivity (normalized cumulated activity), large intestines ([5]; rats, n = 6) [MBqOrgan⋅hr/MBqInjected] | uptake of radioactivity (normalized cumulated activity), liver ([5]; rats, n = 6) [MBqOrgan⋅hr/MBqInjected] | uptake of radioactivity (normalized cumulated activity), small intestine ([5]; rats, n = 6) [MBqOrgan⋅hr/MBqInjected]
1 | COC1CCCN(c2ccc(-c3cc4cc(O)ccc4[nH]3)c(F)n2)C1 (centres unmarked) [OXD-2314, 2-(2-fluoro-6-(3-methoxypiperidin-1-yl)pyridin-3-yl)-1H-indol-5-ol] | 161 ± 34 | 8.8 | 62.9 | 6.5 ± 0.4 | 4.4 |  |  |  |  |  | 
2 | CO[C@H]1CCCN(c2ccc(-c3cc4cc(O)ccc4[nH]3)c([18F])n2)C1 [[^18F]OXD-2314] |  |  |  |  |  | 22.5 ± 0.9 | 21.3 ± 3.1 | 50.6 ± 16.9 | 0.067 ± 0.032 | 0.147 ± 0.023 | 0.075 ± 0.019
